Legend:
human macrophages [1] = assay: TNF-α production by human macrophages with β-amyloid or MPTP; conditions: 10 μg/ml, 48 hours, FIGS. 12 and 13
Description: The CLCs are isolated from 23 healthy individuals, under the same conditions as those set out above. The adherent cell populations are obtained by incubating the CLCs (1×10^7 cells/ml) either in Petri dishes (Nunc) or in 6-well culture plates (Nunc) for 30 min at 37° C. in an RPMI 1640 medium supplemented with foetal calf serum at 10% (v/v) . The monocytes are then recovered by scraping the plates after adding a cold solution of PBS containing 1 mM EDTA. Cell preparations which comprise more than 85% of viable macrophages are estimated by Trypan blue exclusion and staining with a nonspecific esterase.
The macrophages are cultured at a final concentration of 2×10^6 cells/ml in 12- or 24-well plastic culture plates (Nunc) and in an Iscove medium supplemented with 100 U/ml of penicillin, 100 μg/ml of streptomycin and 5% of foetal calf serum.
The cells are incubated for 48 hours at 37° C. in a humid atmosphere (100%) containing 95% air and 5% CO2, in the presence of absence of 10 μg/ml of β-amyloid or MPTP.
The cell supernatants are recovered for measuring the TNF and the nitrites, while apoptosis is evaluated directly on the cells.

human macrophages [2] = assay: Apoptosis of human macrophages with β-amyloid or MPTP; type: cell-based; conditions: 10 μg/ml, 48 hours, FIGS. 12 and 13
Mn—SOD [3] = assay: Endogenous SOD (dismutase) activity of U937 cells after exogenous SOD; type: cell-based, human; conditions: SOD 30 U/ml, FIG. 2
Description: U937 cells, untreated or treated with HIV-Tat protein, in the presence or absence of the abovementioned SODs, are lysed in a detergent buffer comprising: 10 mM Tris-HCl pH 7.4, 0.1% of SDS, 1% of Nonidet P-40, 10 μg/ml of leupeptin, 100 μg/ml of PMSF and 2 μg/ml of aprotinin, by heating at 85° C. for 5 min. The lysate is then briefly sonicated (3×30 sec).
The total superoxide dismutase activity is measured on the sonicated lysates obtained as described above by its capacity to inhibit the reduction of ferrocytochrome c by the superoxide radicals produced by the xanthin oxidase/xanthine system (McCord. J. M., 1969, J. Biol. Chem. 244, 6049). One unit of superoxide dismutase is defined as the amount which inhibits 50% of the reduction of cytochrome c at room temperature and at pH 7.8.

[4] = tested on: glutathione peroxidase (GPx), Mn—SOD, inducible NO synthase (iNOs); assay: Immuno-redox activity of HSD1/anti-HSD1 immune complexes in U937 and U1 cells; conditions: noninfected U937 and U1 cells; HSD1 10 μg/ml (30 U/ml), anti-HSD1 antibodies 10 μg/ml; FIG. 16
Description: U937 cells which are chronically infected with HIV-1 (U1 cells), and which have a low p24 production level (<250 pg/10^5 cells/ml in a 3-day supernatant) are cultured in an RPMI medium supplemented with L-glutamine, penicillin, streptomycin and foetal calf serum at 10% (Gibco products). They are used for the production of p24, and to evaluate apoptosis.

[5] = tested on: glutathione peroxidase (Gpx); assay: Glutathione peroxidase transcription in U937 cells (RT-PCR); conditions: FIG. 3
Description: The human promonocytic leukaemia cell line U937 is cultured at a final concentration of 2×10^5 cells/ml in an Iscove medium enriched with 100 U/ml of penicillin, 100 μg/ml of streptomycin and 5% of foetal calf serum, in the presence (activated) or absence (control) of 10 μg/ml of HIV-Tat protein.
After stimulation and treatment with various sources and concentrations of SOD, the U937 cells are harvested in a phosphate-buffered cold physiological saline, and counted. The total RNA is extracted by standard techniques (Chomczynski. P., 1987, Anal. Biochem. 162, 156), in 1 ml of TRIzol reagent (Life Technologies ≠15596), according to the manufacturer's instructions. After its extraction, the RNA is precipitated with isopropyl alcohol, and the pellets are washed in 70% ethanol and air dried. The dried pellets are resuspended in 50 μl of 0.5 mM EDTA, pH 8, and quantified by spectrophotometry. […]
The amplification program comprises: five cycles comprising 60 sec. at 92° C., 60 sec. at 58° C. and 60 sec. at 74° C., followed by 25 cycles comprising 30 sec. at 92° C., 60 sec. at 60° C. and 60 sec. at 74° C., and to finish, the temperature is kept at 74° C. for another 3 minutes. Positive PCR amplifications are then determined by an electrophoresis on 1.2% agarose gel in 0.5×TAE buffer. […]

Mn—SOD [6] = assay: Endogenous SOD expression in U937 cells (SDS-PAGE / immunoblot); type: cell-based, human; conditions: HIV-Tat activated U937 cells (10 μg/ml Tat); SOD 30 U/ml, 24 hours; FIG. 1
[7] = tested on: inflammation induced with adriamycin; assay: Rat model of inflammation induced with adriamycin; type: in vivo
[8] = tested on: inflammation induced with carrageenans; assay: Rat model of inflammation induced with carrageenans; type: in vivo

CN1CC=C(c2ccccc2)CC1 [MPTP]
production of TNF-α by macrophages (human macrophages [1]): stimulate the production of TNF-α | death of macrophages by apoptosis (human macrophages [2]): induce their death by apoptosis

HSD1: bovine SOD (heterologous), Sigma, St Louis, Mo.
lifting of HIV-Tat protein-induced inhibition of Mn—SOD expression (endogenous SOD activity) (Mn—SOD [3]): can be lifted | expression of glutathione peroxidase (GPx), Mn—SOD and inducible NO synthase (iNOs) [4]: stimulate the expression

HuSOD: recombinant human Cu/Zn SOD, homologous comparator
Gpx transcription [5]: does not enable it | lifting of HIV-Tat protein-induced inhibition of Mn—SOD expression (endogenous SOD activity) (Mn—SOD [3]): not lifted | Mn—SOD expression (Mn—SOD [6]): remains undetectable

bovine Cu—SOD: Cu/Zn—SOD of bovine origin
anti-inflammatory activity (rank order of SODs) [7]: bovine Cu—SOD>Mn—SOD of E. coli | anti-inflammatory activity (rank order of SODs) [8]: Mn—SOD of E. coli>bovine Cu—SOD>human Cu—SOD>yeast Cu—SOD>plant Cu—SOD

human Cu—SOD: human Cu—SOD
anti-inflammatory activity (rank order of SODs) [8]: Mn—SOD of E. coli>bovine Cu—SOD>human Cu—SOD>yeast Cu—SOD>plant Cu—SOD

rat Cu—SOD: rat (homologous) Cu—SOD
anti-inflammatory activity (rank order of SODs) [7]: totally inactive | anti-inflammatory activity (rank order of SODs) [8]: significant pro-inflammatory activity

β-amyloid
production of TNF-α by macrophages (human macrophages [1]): stimulate the production of TNF-α | death of macrophages by apoptosis (human macrophages [2]): induce their death by apoptosis

B1: yeast Cu—SOD: yeast Cu—SOD (protein, UniProt P00445 2-154, looked up)
Superoxide dismutase [Cu-Zn]: VQAVAVLKGDAGVSGVVKFEQASESEPTTVSYEIAGNSPNAERGFHIHEFGDATNGCVSAGPHFNPFKKTHGAPTDEVRHVGDMGNVKTDENGVAKGSFKDSLIKLIGPTSVVGRSVVIHAGQDDLGKGDTEESLKTGNAGPRPACGVIGLTN
anti-inflammatory activity (rank order of SODs) [7]: generates a pro-inflammatory response | anti-inflammatory activity (rank order of SODs) [8]: Mn—SOD of E. coli>bovine Cu—SOD>human Cu—SOD>yeast Cu—SOD>plant Cu—SOD

B2: Mn—SOD of E. coli: manganese SOD of E. coli (protein, UniProt P00448 2-206, looked up)
Superoxide dismutase [Mn]: SYTLPSLPYAYDALEPHFDKQTMEIHHTKHHQTYVNNANAALESLPEFANLPVEELITKLDQLPADKKTVLRNNAGGHANHSLFWKGLKKGTTLQGDLKAAIERDFGSVDNFKAEFEKAAASRFGSGWAWLVLKGDKLAVVSTANQDSPLMGEAISGASGFPIMGLDVWEHAYYLKFQNRRPDYIKEFWNVVNWDEAAARFAAKK
anti-inflammatory activity (rank order of SODs) [7]: bovine Cu—SOD>Mn—SOD of E. coli | anti-inflammatory activity (rank order of SODs) [8]: Mn—SOD of E. coli>bovine Cu—SOD>human Cu—SOD>yeast Cu—SOD>plant Cu—SOD
